Laboratory results taken from patent publication US10245240B2, “Treatment of prostate carcinoma” (Pellficure Pharmaceuticals, Inc., priority 2010, dated 2019).

What was measured:
[1] = system: LNCaP hormone-sensitive human prostate cancer cells; assay: Dose response plumbagin in human LNCaP cells, cell counting in absence of DHT; format: cell-based; settings: no DHT; for % control / cell number/20 mean / cell number/20 trial 1 / cell number/20 trial 2 / cell number/20 trial 3 / cell number/20 trial 4: 24 hours
Experimental: LNCaP hormone-sensitive human prostate cancer cells were placed in androgen withdrawal medium in the absence of DHT (dihydrotestosterone). The absence of DHT simulates surgical or chemical castration. The androgen withdrawal medium was phenol-red free DMEM high-glucose containing 10% charcoal-treated Fetal Bovine Serum.
Plumbagin was added at the indicated concentrations in Table 6 for 24 hours. Cells were trypsinized and counted using a Cell Coulter counter Multisizer II, which excludes debris. The results in Table 6 represent cell numbers as percent of control (in which the number of cells in the absence of drug is 100%). FIG. 8 illustrates the effect of plumbagin in human LNCaP cells.

[2] = system: PTEN-P2/GFP mouse cancer cells; assay: Dose response plumbagin in PTEN-P2/GFP cells, cell counting with or without DHT; format: cell-based; settings: for % control / Average % control: 24 hours; for Average % control: mean of two experiments
Experimental: Cell counting: Cells in 12-well plates are washed once with PBS, detached using Trypsin, and transferred to a suspension vial in a final volume of 10 ml PBS. Cells are counted using a COULTER™ Multisizer II instrument (Beckman Coulter Inc., Hialeah, Fla.) gated for the appropriate cell size and corrected for particulate debris.
PTEN-P2/GFP mouse cancer cells were placed in androgen withdrawal medium in the presence or absence of DHT (dihydrotestosterone) at a final concentration of 10^−8 M. Plumbagin was added at the indicated concentrations for 24 hours. The absence of DHT simulates surgical or chemical castration. Cells were trypsinized and counted using a Cell Coulter counter Multisizer II, which excludes debris. Results represent cell numbers as percent of control (in which the number of cells in the absence of drug is 100%).
Androgen withdrawal medium: DMEM high-glucose phenol-red free, with the following additives: 10% charcoal-treated Fetal Bovine Serum, 25 ug/ml bovine pituitary extract, 5 ug/ml insulin, 6 ng/ml EGF recombinant.

[3] = system: P388 lymphocytic leukemia; settings: cited from earlier work
[4] = system: PTEN-P2/GFP prostate cancer cells; assay: Effect of naphthoquinone analogs on PTEN-P2/GFP cell proliferation (CellTiter96 formazan-based viability assay); settings: Mus musculus, 24 h
Experimental: Cell culture: PTEN-P2/GFP are cells that stably express histone H2B-GFP fusion protein.
Cells are grown in DMEM medium containing 10% FBS, 2 mM L-glutamine, 100 U/ml penicillin/100 μg/ml streptomycin, insulin-selenium-transferrin (5 μg/ml insulin), and DHT 10^−8 M final. Androgen withdrawal is achieved by keeping the cells in phenol red-free DMEM medium containing 10% charcoal-treated FBS and the same supplements as in the normal medium except for DHT. Cells are maintained in a humidified incubator at 37° C. and 5% CO2. G418 (100 μg/ml) is added to maintain stable expression of H2B-GFP.
PTEN-P2/GFP prostate cancer cells were plated at a density of 8000 cells/well in 96-well plates (triplicates) in growing medium containing 10% Fetal Bovine Serum and DHT. The next day, increasing concentrations of a naphthoquinone analog (diluted from 10 mM DMSO stock solutions) were incubated for 24 hrs. Cell viability was determined by the formazan-based cytotoxicity assay “CellTiter96Aquaeous nonradioactive proliferation assay” (Promega).

[5] = system: hepatoma; settings: in vivo; cited from earlier work
[6] = system: fibrosarcomas; settings: cited from earlier work

CC1=CC(=O)c2c(O)cccc2C1=O [Plumbagin, 5-hydroxy-2-methylnaphthalene-1,4-dione]
% control ([1]; 0.5 μM plumbagin): 84.13% | cell number/20 mean ([1]; 0.5 μM plumbagin): 6335 | cell number/20 trial 1 ([1]; 0.5 μM plumbagin): 6422 | cell number/20 trial 2 ([1]; 0.5 μM plumbagin): 5989 | cell number/20 trial 3 ([1]; 0.5 μM plumbagin): 6453 | cell number/20 trial 4 ([1]; 0.5 μM plumbagin): 6475 | % control ([1]; 1 μM plumbagin): 90.95% | cell number/20 mean ([1]; 1 μM plumbagin): 6849 | cell number/20 trial 1 ([1]; 1 μM plumbagin): 6997 | cell number/20 trial 2 ([1]; 1 μM plumbagin): 7139 | cell number/20 trial 3 ([1]; 1 μM plumbagin): 6769 | cell number/20 trial 4 ([1]; 1 μM plumbagin): 6490 | % control ([1]; 2 μM plumbagin): 66.23% | cell number/20 mean ([1]; 2 μM plumbagin): 4987 | cell number/20 trial 1 ([1]; 2 μM plumbagin): 5324 | cell number/20 trial 2 ([1]; 2 μM plumbagin): 5282 | cell number/20 trial 3 ([1]; 2 μM plumbagin): 4522 | cell number/20 trial 4 ([1]; 2 μM plumbagin): 4821 | % control ([1]; 4 μM plumbagin): 42.21% | cell number/20 mean ([1]; 4 μM plumbagin): 3179 | cell number/20 trial 1 ([1]; 4 μM plumbagin): 3005 | cell number/20 trial 2 ([1]; 4 μM plumbagin): 3082 | cell number/20 trial 3 ([1]; 4 μM plumbagin): 3327 | cell number/20 trial 4 ([1]; 4 μM plumbagin): 3300 | % control ([1]; 6 μM plumbagin): 18.50% | cell number/20 mean ([1]; 6 μM plumbagin): 1393 | cell number/20 trial 1 ([1]; 6 μM plumbagin): 1396 | cell number/20 trial 2 ([1]; 6 μM plumbagin): 1500 | cell number/20 trial 3 ([1]; 6 μM plumbagin): 1323 | cell number/20 trial 4 ([1]; 6 μM plumbagin): 1352 | % control ([1]; 8 μM plumbagin): 3.93% | cell number/20 mean ([1]; 8 μM plumbagin): 296 | cell number/20 trial 1 ([1]; 8 μM plumbagin): 330 | cell number/20 trial 2 ([1]; 8 μM plumbagin): 283 | cell number/20 trial 3 ([1]; 8 μM plumbagin): 284 | cell number/20 trial 4 ([1]; 8 μM plumbagin): 287 | efficiency of plumbagin with simulated castration versus castration alone ([1]; in vitro, LNCaP cells): more efficient than treatment castration alone | efficiency of plumbagin with simulated castration (no DHT) versus plumbagin alone ([2]; in vitro, PTEN-P2/GFP cells): more efficient than treatment with plumbagin alone | % control ([2]; noDHT, 1 μM plumbagin, first experiment): 73.70% | Average % control ([2]; noDHT, 1 μM plumbagin): 84.83% | % control ([2]; noDHT, 1 μM plumbagin, second experiment column): 95.96% | % control ([2]; noDHT, 2 μM plumbagin, first experiment): 42.90% | Average % control ([2]; noDHT, 2 μM plumbagin): 40.02% | % control ([2]; noDHT, 2 μM plumbagin, second experiment column): 37.14% | % control ([2]; noDHT, 4 μM plumbagin, first experiment): 10.12% | Average % control ([2]; noDHT, 4 μM plumbagin): 5.84% | % control ([2]; noDHT, 4 μM plumbagin, second experiment column): 1.57% | % control ([2]; noDHT, 8 μM plumbagin, first experiment): 0.45% | Average % control ([2]; noDHT, 8 μM plumbagin): 0.33% | % control ([2]; noDHT, 8 μM plumbagin, second experiment column): 0.22% | % control ([2]; with DHT, 1 μM plumbagin, first experiment): 106.93% | Average % control ([2]; with DHT, 1 μM plumbagin): 84.11% | % control ([2]; with DHT, 1 μM plumbagin, second experiment column): 61.29% | % control ([2]; with DHT, 2 μM plumbagin, first experiment): 94.18% | Average % control ([2]; with DHT, 2 μM plumbagin): 56.67% | % control ([2]; with DHT, 2 μM plumbagin, second experiment column): 19.16% | % control ([2]; with DHT, 4 μM plumbagin, first experiment): 22.62% | Average % control ([2]; with DHT, 4 μM plumbagin): 13.76% | % control ([2]; with DHT, 4 μM plumbagin, second experiment column): 4.89% | % control ([2]; with DHT, 8 μM plumbagin, first experiment): 0.85% | Average % control ([2]; with DHT, 8 μM plumbagin): 0.62% | % control ([2]; with DHT, 8 μM plumbagin, second experiment column): 0.40% | ED50 [3]: 4 mg/kg body weight | IC50 [4]: 4.55 µM | viability at 1 µM ([4]; 1 μM, medium with 10% FBS and DHT): 94.6% | viability at 2 µM ([4]; 2 μM, medium with 10% FBS and DHT): 90.9% | viability at 3 µM ([4]; 3 μM, medium with 10% FBS and DHT): 88.9% | viability at 4 µM ([4]; 4 μM, medium with 10% FBS and DHT): 73% | viability at 5 µM ([4]; 5 μM, medium with 10% FBS and DHT): 32.9% | viability at 7 µM ([4]; 7 μM, medium with 10% FBS and DHT): 0.4% | viability at 10 µM ([4]; 10 μM, medium with 10% FBS and DHT): 0.6% | effect on hepatoma [5]: induced regression of hepatoma | ED50 [6]: 0.75 mg/kg body weight
